“And” between values parts separate entries of the source, which are not always exact repeats. Identical values can stand only once. Marks after values point to notes of the source that are not given here.
How the values were obtained:
MEXF 514L = assay: Cytotoxic activity, propidium iodide fluorescence assay, panel of 9 human cancer cell lines; type: cell-based; details: MEXF 514L melanoma, 3-7 days
Protocol: (§1) Three kinds of stock solutions were prepared for in vitro cytotoxic activity test. The first solution is DMSO (dimethyl sulfoxide) mixed with sodium meta-arsenite. […] The third solution is DMSO mixed with arsenic acid sodium salt. Those three solutions were diluted with culture medium (RPMI 1640). The final concentrations of DMSO in those three solutions are less than 0.3 vol %.
(§2) Nine kinds of human cancer cell lines out of six kinds of cancers were grown at 37° C. under a controlled atmosphere of 95% air and 5% CO2. The cells were grown on monolayer cultures of RPMI 1640 cell culture medium supplemented with 10% fetal calf serum.
(§3) The grown cells were harvested from exponential phase cultures by trypsinization and counted. The counted cells were placed in a plate, which has ninety six wells. Each well on the plate is in a shape of a flat-bottomed microtitre. Density of the cells in a suspension was adjusted depending on the cell line. The suspension was prepared by diluting the grown cells with the culture medium (RPMI 1640). Concentration of the cells were varied from 5×10^4 to 1×10^5 viable cells/ml. 100 μl of the suspension was placed in each well of the plate. […] Then add 50 μl of culture medium (RPMI 1640) only to 6 wells, 50 μl/well, among the 96 wells of one plate. It is called controlled. One well is filled with culture medium plus 5-FU. And another 50 μl of culture medium plus one of the stock solutions were added to each of the left 89 wells to allow cells to resume exponential growth.
(§4) The cytotoxic activity test was executed with three plates simultaneously to check reliability of the data obtained. The three plates contain the same samples of cancer cells. The three plates were then incubated for 3-7 days under the same controlled atmosphere and cell proliferation was assessed with a modified propodium iodide fluorescence assay. After thawing of the plates, fluorescence was measured using a Millipore Cytofluor 2350-microplate reader (excitation 530 nm emission 620 nm) in order to quantify the total cell number. The assay included untreated and positive controls containing 5-FU.
(§5) Growth inhibition is defined as (numbers of cancer cell alive) treated (T)/(number of cells) control (C)×100% (T/C %).

[1] = tested on: panel of 9 human cancer cell lines; assay: Cytotoxic activity, whole panel of 9 human cancer cell lines (means, active/total); type: cell-based; details: for Active/Total cancer cell lines / Active/Total cancer cell lines, percent: active = T/C<30
Protocol: as §1, §2
as §3, with “1640).” for “1640). Concentration of the cells were varied from 5×10^4 to 1×10^5 viable cells/ml. 100 μl of the suspension was placed in each well of the plate.”
as §4, §5

ALL-SCID 4 = assay: Anticancer activity in human leukemia model ALL-SCID 4; details: for BW loss % (day) / Drug-related deaths: days 34-54
Description: Anticancer activity of the sodium meta-arsenite and arsenic trioxide against two human paediatric acute lymphoblastic leukemia (ALL) models in vivo, ALL-SCID 4 was investigated to compare.
Male NOD/SCID mice (deficient in T and B lymphocytes, NK cells and functional macrophages) were transplanted s.c. on day 0 with fragments of ALL-SCID 4 cancers, which were obtained from mice used for routine passage of the cancers. Mice were randomized to the scheduled treatment groups.
Sodium meta-arsenite was administered orally at 2, 4 and 6 mg/kg/day (⅓ MTD, ⅔ MTD and MTD) once every day from day 34-54 after transplantation. The vehicle control (5% glucose in water) was administered i.p. (10 ml/kg).
Sodium meta-arsenite was dissolved in ready-to-use sterile infusion (5% (w/v) glucose in aqua injectabila). Arsenic trioxide was dissolved in 25 mM NaOH then dissolved in 5% glucose in aqua injectabila. The solutions were prepared freshly on the day of therapy for each administration.

[2] = mean over human cancer cell lines tested (9 line panel)

**Q.** Which results are given for `O=[As][O-].[Na+]` [Sodium meta-arsenite, sodium meta-arsenite]?
**A.** T/C % at drug concentration (MEXF 514L; 1 μg/ml): 120%; T/C % at drug concentration (MEXF 514L; 3 μg/ml): 95%; T/C % at drug concentration (MEXF 514L; 10 μg/ml): 98%; T/C % at drug concentration (MEXF 514L; 30 μg/ml): 70%; T/C % at drug concentration (MEXF 514L; 100 μg/ml): 21%; Active/Total cancer cell lines ([1]; 1 μg/ml): 1/9; Active/Total cancer cell lines, percent ([1]; 1 μg/ml): 11%; Active/Total cancer cell lines ([1]; 3 μg/ml): 2/8; Active/Total cancer cell lines, percent ([1]; 3 μg/ml): 25%; Active/Total cancer cell lines ([1]; 10 μg/ml): 3/9; Active/Total cancer cell lines, percent ([1]; 10 μg/ml): 33%; Active/Total cancer cell lines ([1]; 30 μg/ml): 4/8; Active/Total cancer cell lines, percent ([1]; 30 μg/ml): 50%; Active/Total cancer cell lines, percent ([1]; 100 μg/ml): 89%; Assessment from comparison of the IC50 values ([1]; 9 cell line panel): most potent compound of the series; IC50 [1, 2]: 56 µM; IC90 [1, 2]: 490 µM; Mean IC50 [1, 2]: 7.3 µg/mL; Mean IC70 [1, 2]: 19.8 μg/ml and 152 μM; Mean IC90 [1, 2]: 63.7 µg/mL; BW loss % (day) (ALL-SCID 4; 2 mg/kg p.o.): 0 (44) %; Drug-related deaths (ALL-SCID 4; 2 mg/kg p.o.): 0/8; T/C % (ALL-SCID 4; 2 mg/kg p.o., days 34-54 (⅓ MTD)): 38* %; T/C % (ALL-SCID 4; 2 mg/kg p.o., days 34-54 (⅓ MTD), listed as sodium meta-arsenite): 38%; BW loss % (day) (ALL-SCID 4; 4 mg/kg p.o.): +5 (44) %; Drug-related deaths (ALL-SCID 4; 4 mg/kg p.o.): 0/8; T/C % (ALL-SCID 4; 4 mg/kg p.o., days 34-54 (⅔ MTD)): 55* %; T/C % (ALL-SCID 4; 4 mg/kg p.o., days 34-54 (⅔ MTD), listed as sodium meta-arsenite): 55%; BW loss % (day) (ALL-SCID 4; 6 mg/kg p.o.): +5 (44) %; Drug-related deaths (ALL-SCID 4; 6 mg/kg p.o.): 0/8; T/C % (ALL-SCID 4; 6 mg/kg p.o., days 34-54 (MTD)): 48* %; T/C % (ALL-SCID 4; 6 mg/kg p.o., days 34-54 (MTD), listed as sodium meta-arsenite): 48%; MTD (ALL-SCID 4; small dose finding studies prior to the ALL-SCID 4 study): 6 mg/kg/day; Body weight loss and lethality (ALL-SCID 4; treated groups 2, 4, 6 mg/kg/day p.o.): not observed
